Reference: ChEMBL document CHEMBL1121833, “Structure--sweetness relationship of L-aspartyl dipeptide analogues. A receptor site topology” (J Med Chem, 1981)

Experiment: Sweet potency as logarithm of sweet potency (log SP) relative to sucrose
Type: functional

SMILES	Log SP
CCC(C)OC(=O)C[C@H](C)NC(=O)[C@H](N)CC(=O)O (some centres not stated)	0.6
COC(=O)[C@@H](COC(=O)C(C)C)NC(=O)[C@H](N)CC(=O)O	1.65
COC(=O)C(NC(=O)[C@@H](N)CC(=O)O)C(C)c1ccccc1 (some centres not stated)	0.95
CCC(=O)OC[C@H](C)NC(=O)[C@H](N)CC(=O)O	1.86
COC(=O)[C@H](C)NC(=O)[C@H](N)CC(=O)O	1.2
CCCOC(=O)[C@H](NC(=O)[C@@H](N)CC(=O)O)[C@H](C)O	1.51
N[C@H](CC(=O)O)C(=O)NCCC1CCCCC1	0.85
CCC(C)OC(=O)CCNC(=O)[C@H](N)CC(=O)O (some centres not stated)	0.73
CC(C)CCC(C)NC(=O)[C@H](N)CC(=O)O (some centres not stated)	1.54
CCCOC(=O)[C@H](C)NC(=O)[C@H](N)CC(=O)O	2.1
COC(=O)[C@@H](CCCNC(C)=O)NC(=O)[C@H](N)CC(=O)O	0.25
C[C@@H](COC(=O)C1CC1)NC(=O)[C@H](N)CC(=O)O	2.18
CCCCCC[C@@H](NC(=O)[C@H](N)CC(=O)O)C(=O)OC	2.07
CC(C)CC[C@H](C)NC(=O)[C@H](N)CC(=O)O	1.85
COC(=O)CCNC(=O)[C@H](N)CC(=O)O	0.11
CCOC(=O)C(NC(=O)[C@H](N)CC(=O)O)C(=O)OCC	1.35
CC(C)OC(=O)[C@@H](NC(=O)[C@H](N)CC(=O)O)C(C)C	2.15
CCC[C@H](NC(=O)[C@H](N)CC(=O)O)C(=O)OC(C)C	1.43
CC(C)COC(=O)[C@H](NC(=O)[C@@H](N)CC(=O)O)[C@@H](C)O	1.97
COC(=O)[C@@H](CC(=O)OC(C)(C)C)NC(=O)[C@H](N)CC(=O)O	1.3
CC(C)(Cc1ccccc1)NC(=O)[C@H](N)CC(=O)O	1.19
CCCSC[C@@H](NC(=O)[C@H](N)CC(=O)O)C(=O)OC	2.11
CCC(=O)OC[C@H](CO)NC(=O)[C@H](N)CC(=O)O	1.99
CC[C@@H](COC(=O)C(C)C)NC(=O)[C@H](N)CC(=O)O	1.38

SMILES	Log SP
CCCCOC(=O)[C@H](C)NC(=O)[C@H](N)CC(=O)O	0.9
CC(C)OC(=O)CCNC(=O)[C@H](N)CC(=O)O	0.7
CC(=O)OCCNC(=O)[C@H](N)CC(=O)O	0.28
C[C@@H](CCc1ccccc1)NC(=O)[C@H](N)CC(=O)O	0.89
C[C@@H](CC(=O)OC(C)(C)C)NC(=O)[C@H](N)CC(=O)O	0.68
CCCOC(=O)[C@H](NC(=O)[C@@H](N)CC(=O)O)[C@@H](C)O	2.08
COC(=O)C(NC(=O)[C@@H](N)CC(=O)O)C(=O)OC1CCCC(C)C1 (some centres not stated)	3.02
C[C@@H](COC(=O)C1CCC1)NC(=O)[C@H](N)CC(=O)O	2.24
CCCCOC(=O)[C@H](NC(=O)[C@@H](N)CC(=O)O)[C@H](C)O	1.23
CC(CNC(=O)[C@H](N)CC(=O)O)C(=O)OC1CCCCC1 (some centres not stated)	0.94
CC[C@@H](COC(=O)C1CC1)NC(=O)[C@H](N)CC(=O)O	1.38
CCCC(=O)OC[C@@H](NC(=O)[C@H](N)CC(=O)O)C(=O)OC	1.43
CCCC[C@H](C)NC(=O)[C@H](N)CC(=O)O	1.6
CCC[C@@H](NC(=O)[C@H](N)CC(=O)O)C(=O)OC	0.46
N[C@H](CC(=O)O)C(=O)NCC(=O)OC1CCCCC1	1.02
CC(C)C(=O)OC[C@H](C)NC(=O)[C@H](N)CC(=O)O	1.98
COC(=O)[C@H](NC(=O)[C@H](N)CC(=O)O)C(=O)OC1CCCCC1	3.14
CCCCC[C@H](C)NC(=O)[C@H](N)CC(=O)O (stereo in doubt; 12)	1.56
CCCC(=O)OC[C@H](CO)NC(=O)[C@H](N)CC(=O)O	0.58
CC(C)OC(=O)C[C@H](C)NC(=O)[C@H](N)CC(=O)O	0.84
CCCC(=O)OC[C@@H](NC(=O)[C@H](N)CC(=O)O)C(C)C	0.4
COC(=O)[C@H](CO)NC(=O)[C@H](N)CC(=O)O	1.49
CC(C)C(=O)OC[C@@H](NC(=O)[C@H](N)CC(=O)O)C(C)C	1.1
